Reference: US20250288570A1, “TREATMENT OF NEUROLOGICAL DISORDERS” (Praxis Precision Medicines, Inc., priority 2022, published 2025)

Key:
[1] = tested on: scPTZ-induced seizures in CD-1 mice; assay: Subcutaneous pentylenetetrazole (scPTZ) induced seizure test; format: in vivo, mouse
Experimental: The subcutaneous pentylenetetrazole (scPTZ) test is a validated model for evaluating the anti-seizure potential of compounds. The positive control valproate is an approved anti-seizure medicine (ASM). This study evaluated the efficacy of Compound 1 to attenuate scPTZ-induced seizures in wildtype CD-1 mice. Doses of Compound 1 used were 1 mg/kg, 3 mg/kg, 6 mg/kg and 10 mg/kg administered orally. Valproate (600 mg/kg, administered intraperitoneally) was used as a positive control as it has a broad spectrum of anticonvulsant activity.
Male CD-1 mice (Charles River Laboratories, St. Constant, Quebec, Canada) were used for the study. Body weights at the time the experiment was carried out were between 27 and 39 grams. The mice were group-housed in polycarbonate cages according to standard operating procedures. Animals were maintained on a 12 hour light/12 hour dark cycle, with all experimental activities occurring during the light phase. Food and water were available ad libitum. […]
Immediately prior to the administration of PTZ, a brief neurological assessment was performed. Each animal was visually assessed and received a score from 0 to 3 according to the following scoring system: neurological score of 0 corresponds to a normal status; neurological score of 1 corresponds to a modest decrease in spontaneous activity; neurological score of 2 corresponds to a marked decrease in spontaneous activity; and neurological score of 3 corresponds to loss of righting reflex.
PTZ (85 mg/kg, 10 mL/kg) was administered as a subcutaneous (s.c.) injection. […] The latency to generalized clonic seizure was recorded. Seizures were also scored using a seizure scale. Mice were scored with the following stages: 0) no seizure activity, 1) myoclonic jerks with “flat body posture”, 2) generalized clonus with loss of posture lasting ˜2 s, 3) generalized clonus with loss of posture lasting ˜10 s or 4) tonic hindlimb extension. Seizure scores were used as a qualitative measure to assess seizure incidence and were not used as a quantitative measure of pharmacological activity. […]

[2] = tested on: multiple NaV isoforms and orthologs; assay: ATX-II induced persistent INa of multiple NaV isoforms and orthologs; format: cell-based
[3] = Phase 1 clinical trial, single ascending dose (Part A), healthy volunteers; format: in vivo, human
Description: This is a trial to assess the safety, tolerability, pharmacokinetics (PK), and pharmacodynamics (PD) of Compound 1 in healthy participants aged 18 to 55 years (inclusive). The trial is initially comprised of 2 parts, with 1 additional optional part, as follows: • Part A is randomized, double-blinded, and placebo-controlled. Part A is designed to investigate the safety, PK, and PD of single ascending doses of Compound 1. • Part B is randomized, double-blinded, and placebo-controlled. Part B is designed to investigate the safety, PK, and PD of multiple ascending doses (selected based on the results from Part A) of Compound 1. • Part C (optional) is a randomized, open-label, crossover design food effect evaluation to investigate the PK of a single dose (selected based on the results from Part A) of Compound 1 in the fasted and fed state.
Safety and tolerability assessments for Parts A, B, and C will include vital signs, 12-lead ECGs, physical examinations, clinical laboratory tests, and the C-SSRS (for Part B).
Healthy participants will be enrolled to receive single ascending oral doses of Compound 1 or placebo on Day 1. FIG. 14A is an illustration of the dosing scheme for Part A (single ascending dose) of the trial. Dose escalation in Part A will initially be conducted in up to a total of 4 planned cohorts (Cohorts A1 to A4). Following completion of Cohort A4, up to an additional 3 escalation cohorts may be added. […] Doses may be adjusted upward or downward based on safety, tolerability, and PK data from the preceding cohorts. Cohorts after A4 will be numbered sequentially (A5, A6, etc.). […]
Compound 1 will be administered to Cohort A1 participants at the starting dose of 5 mg. […] The safety and tolerability of each sentinel participant will be monitored until Day 2 and will be reviewed prior to dosing the remainder of participants in the cohort. […]
Cohorts will be dosed in an escalating order. […] If the current dose level is determined to be safe and tolerated by the SRC, the next dose cohort will be randomized to receive the selected dose of active Compound 1 or placebo. […]

Question: For CCOC(F)(F)c1nnc2ccc(-c3cnc(OCC(F)(F)F)c(F)c3)cn12 [Compound 1], which “spontaneous activity (in words)” value ([1]; 10 mg/kg) is on record?
Answer: Its value is “modest reduction in spontaneous activity was observed in a single mouse”.

Question: And the “protection in PTZ acute seizure model (in words)” value ([1]; 1-10 mg/kg p.o.)?
Answer: The value was “protected from generalized clonus”.

Question: And the “neurological scores (in words)” value ([1]; dose range tested)?
Answer: The value was “Neurological scores for all but one mouse treated with Compound 1 were normal”.

Question: What about the “inhibition of persistent INa at other isoforms and orthologs (in words)” value [2] of the same compound?
Answer: Its value is “inhibits ATX-II induced persistent INa expressed by multiple NaV isoforms and orthologs”.

Question: What about the “safety and tolerability (in words)” value ([3]; healthy participants, single oral doses up to 45 mg) of the same compound?
Answer: The value was “safe and generally well tolerated”.

Question: What about the “most frequently reported TEAEs” value ([3]; single doses up to 45 mg) of the same compound?
Answer: Its value is “headache and fatigue”.

Question: And the “severity of treatment-emergent adverse events” value ([3]; single doses up to 45 mg)?
Answer: The value was “mild in severity”.
